Assay: Human HepG2 cell viability assay in 384 well format
Type: toxicity, cell-based
Parameters: dose 125 nL, time 70.5 hour; concentration not given beside the values
Conditions: HepG2 cells, read-out: Inhibition

Compound | cytotoxicity at 70.5 h
O=C(c1ccc(C(F)(F)F)cc1)C1CCCN(C(=O)Cn2cnnn2)C1 (stereo unspecified) | -15.3%
CN1CCC(Cc2nc(-c3cnccn3)n(Cc3ccccc3)n2)CC1 | -4.63%
Cc1ncccc1Oc1ncnc(N2CCCC(O)(CO)CC2)c1C (stereo unspecified) | -16.4%
O=C(c1ccc[nH]1)N1CCc2ccc(S(=O)(=O)N3CCOCC3)cc2C1 | 3.25%
COC(=O)[C@@H]1CCCN1C(=O)c1cn(C/C=C/c2ccccc2)nn1 | 24.7%
O=C(c1cccc(Cl)c1)N1CC[C@@H](N2CCC(O)CC2)[C@H](O)C1 | 16%
Cc1cc(N2CCC3(CCCN(CCO)C3=O)C2)nc(C)c1C#N (stereo unspecified) | -18.8%
Cc1cc(C(=O)N2CCCC(Cn3cc(C4CC4)nn3)C2)nc(C)n1 (stereo unspecified) | -13.2%
c1ccc(CCCN2CCN(CCn3cncn3)CC2)cc1 | -3.65%
CN(CC1=CCCN(Cc2cccc(C#N)c2)C1)C(=O)c1ccco1 | -12.2%
Cc1noc(C)c1CN(C)C(=O)CN1CC(c2ccccc2)CC1=O (stereo unspecified) | -6.3%
Cc1cc(Cl)ccc1C(=O)N[C@H]1CN(S(C)(=O)=O)C[C@@H]1C1CC1 | -0.333%
CCOCc1nc(-c2ccc(F)cc2Cl)n(C2CCN(C)CC2)n1 | -17.9%
CCCN1CCCn2nc(CNC(=O)CCOC)cc2C1 | -4.33%
COCC(NC1CSCCSC1)c1ccnn1C (stereo unspecified) | -13.2%
CCc1cc(NCCNC(C)=O)nc(N2CCCC2)n1 | 23.3%
CCCn1cnnc1CNC(=O)C1COc2cc(OC)ccc2C1 (stereo unspecified) | 18.3%
CN(C)CCn1ccnc1C1CCCN(c2ncc(Cl)cc2F)C1 (stereo unspecified) | -3.65%
Cc1cc(C(F)(F)F)nc(CCNC(C)Cn2cncn2)n1 (stereo unspecified) | -11.4%
CCn1cc(CN2CCC(CN3CCCCC3)CC2)cc1C#N | 4.33%
CN1CCN(CCc2ncnn2-c2ccc3c(c2)OCO3)CC1 | 22%
Cc1nc[nH]c1C(=O)N1CCC2(CC1)CN(CCN(C)C)C(=O)O2 | -6.22%
Cc1nccn1-c1ccc(NC(=O)C2CCCN2Cc2ccoc2)cc1 (stereo unspecified) | -6.93%

Compound | cytotoxicity at 70.5 h
Cc1nc2c(C)cccc2cc1C(=O)N1CCC2(CCN(C)CC2)C1 | 3.12%
CCc1cnc(C)nc1NC(C)C(=O)Nc1cc(F)ccc1C (stereo unspecified) | 22.4%
O=C(CSCC1CC1)N1CCCC2(CCC(=O)N(CC3CC3)C2)C1 (stereo unspecified) | -25.9%
Cc1nn2cc(CCNC(=O)c3cc(C(C)C)no3)nc2s1 | 12.6%
CC(C)N(Cc1c[nH]nc1-c1ccc2c(c1)OCO2)Cc1nccn1C | -4.64%
Cc1cc(N2CCC3(CCCN(CCO)C3=O)C2)nc2ccccc12 (stereo unspecified) | -26.3%
Cc1cc(CN2CCC=C(CN(C)C(=O)c3ccco3)C2)no1 | -7.11%
O=C(Cc1ccsc1)N1CCN(CCOc2ccccc2)CC1 | -5.67%
CCc1ccc(CN2CCN(c3cccc(OC)c3)C(=O)C2)nc1 | -8.23%
CCN(CC)C(=O)Cn1cc(C(=O)NCCc2nc(C)c(C)s2)nn1 | -2.44%
CN1CCN([C@H]2CCN(C(=O)c3nn(C)cc3Cl)C[C@H]2CCCO)CC1 | -10.4%
COC(=O)C1C=CCN1C(=O)c1cc(COc2ccccc2)[nH]n1 (stereo unspecified) | -5.33%
CCOC(=O)N1CCC2(CC1)N=C(CCC(C)C)NC2=O | -1.58%
CC(C)n1cnnc1CN(C)C1CCCNC1 (stereo unspecified) | -10.1%
Cc1ccsc1C(Cn1ccnc1-c1ccccc1C(=O)O)N(C)C (stereo unspecified) | 19.1%
OCCC1CN(c2nc(-c3cccnc3)nc3c2CCNCC3)CCO1 (stereo unspecified) | -1.49%
Cc1ccc2nc(CN3CCN(C4CCCCC4)C(=O)C3)cc(O)c2c1 | -0.969%
CC(C)c1nccc(-c2nccn2CCN(C)S(C)(=O)=O)n1 | 19%
Cc1nc(C(C)C)sc1C(=O)N1CCN(C2CN3CCC2CC3)CC1 (stereo unspecified) | -6.54%
CNC(=O)c1cn2cc(-c3ccccc3Cl)n(CC3CC3)c(=O)c2n1 | 15.9%
Cc1ccsc1CN(C)c1cc(N2CCOCC2)ncn1 | -2.06%
Cc1cc(N2CCC3(CCC(=O)N(CC4CC4)C3)CC2)ncn1 | -7.85%
CC(C)c1cc(C(=O)N2CCNCC2C(=O)NCc2ccncc2)on1 (stereo unspecified) | -2.19%

Compound | cytotoxicity at 70.5 h
CN1CCC(N2CCC(c3ccccc3C(=O)O)C2)CC1 (stereo unspecified) | -0.525%
CCN1CCCC(C)(C(=O)NCc2nccn2Cc2ccccc2)C1 (stereo unspecified) | 0.597%
O=C(Nc1nc(-c2ccccc2)ns1)N1CCN(C(=O)C2CC2)CC1 | -0.566%
C=C(C)COc1ccccc1C(=O)NCc1nc(C)cc(=O)[nH]1 | -11.2%
COc1ccc(OC)c(-c2nc(CN(C)Cc3nonc3C)c(C)o2)c1 | 26.4%
O=C(CCN1CCCC(CO)(CC2CC2)C1)NC1CCCCC1 (stereo unspecified) | -25.2%
CC(=O)N1CCCn2nc(CNS(=O)(=O)N(C)C(C)C)cc2C1 | -14.6%
CCOCc1nc2c(c(NC(CC)c3ccncc3)n1)CCNCC2 (stereo unspecified) | 1.72%
Cc1ccccc1[C@@H]1CN(CCCS(=O)(=O)N(C)C)C[C@H]1C(=O)O | 7.05%
CN(C)CCCn1ccnc1C1CCCN(c2ncc(Cl)cc2F)C1 (stereo unspecified) | -2.12%
Cn1ncc2c(N[C@@H]3C[C@@H]4CC[C@H]3C4)nc(-c3ccncc3)nc21 | -2.05%
c1cnnc(-c2noc(COCC3CCCO3)n2)c1 (stereo unspecified) | -3.34%
CC1(CNS(=O)(=O)c2cccc(C(=O)N3CCSCC3)c2)COC1 | -6.9%
Cc1nc(CC(=O)NCc2csc(N3CCCC3)n2)cs1 | -4.47%
CSc1ccc(CN2CCC(CCC(=O)Nc3ccccc3)CC2)cc1 | 8.45%
Cc1cc(C2CCC2)nc(N2CC(n3cccn3)C2)n1 | -4.39%
Cc1nc2ccc(CN3CC4(CCOC4)CCC3=O)cc2[nH]1 (stereo unspecified) | -1.05%
CCC[C@@H]1CN(Cc2nnc(-c3cccc(F)c3)o2)C[C@H]1NC(C)=O | -15.2%
O=C(c1ncc[nH]1)N1CCC(Cn2cc(-c3cccc(Cl)c3)nn2)CC1 | 20.7%
CCCn1ccnc1CN1CCc2[nH]cnc2C1Cc1ccccc1 (stereo unspecified) | -4.4%
N[C@@H]1c2ccccc2C2(CCN(c3cnc4ccccc4n3)CC2)[C@H]1O | -9.08%
CC(C)=CCN1C(=O)[C@H]2CC[C@@H]1CN(c1ncccc1C(N)=O)C2 | -9.49%
CC(C)(CN1CCC2(CCOCC2)CC1)N1CCOCC1 | 9.42%

Compound | cytotoxicity at 70.5 h
CCc1nc(N)nc(N2CCCC3(CN(C)C(=O)O3)C2)c1C (stereo unspecified) | -10.4%
CCc1cc(N2C[C@H](C3CC3)[C@@H](N)C2)nc(N2CCOCC2)n1 | -5.91%
c1ccc2c(c1)CC(Cc1cc(N3CCCC3)cnn1)CO2 (stereo unspecified) | -7.55%
O=c1[nH]c(-c2ccccn2)nc2c1CCN(S(=O)(=O)N1CCCC1)C2 | -3.27%
CN(C)C(=O)N1CC[C@@H](c2ccc3ccccc3c2)[C@H](O)C1 | 6.36%
CN1CC2(CCN(C(=O)c3cn4cccnc4n3)CC2)CC1=O | 39.7%
CCN1CC2(CCC1=O)CCN(C(=O)c1cn3cccnc3n1)CC2 | 34.9%
CCn1c(C2CCCN(C(=O)c3ccc[nH]3)C2)nn(CCN(C)C)c1=O (stereo unspecified) | 4.96%
O=C(NCC(F)(F)F)C(c1cccnc1)N1CCCC1 (stereo unspecified) | -5.02%
CCCC(=O)Nc1ccc(CC(=O)N(CC)CC2CCCCO2)cc1 (stereo unspecified) | 8.7%
Cc1ccc(NCCCNC(=O)C2CCCN(Cc3ccco3)C2)nc1 (stereo unspecified) | 7.19%
Cc1nc2c(c(N3CCC(O)(CN4CCCC4)CC3)n1)CCNCC2 | -3.88%
CC1(C)CNC(=O)c2nc(-c3nnc(-c4ccccc4)[nH]3)[nH]c2C1 | 0.339%
COc1ccc(C(CC(=O)NCc2n[nH]c(N)n2)c2ccccc2)cc1 (stereo unspecified) | -4.65%
CCc1csc(CCNC(=O)CC2CCN(C(C)C)CC2)n1 | 23%
CCn1c(CN(C)C)nnc1C1CCN(Cc2ccc(Cl)c(F)c2)CC1 | -6.05%
CN1CCC(Cc2noc(-c3cccc(OCC(N)=O)c3)n2)CC1 | 7.49%
CNc1nc(N2CCN(Cc3ccsc3)C(CCO)C2)nc2c1CCC2 (stereo unspecified) | -1.63%
CC(=O)N[C@H]1CN(S(=O)(=O)N(C)Cc2ccccc2)C[C@@H]1C1CC1 | -2.36%
CCn1cc(S(=O)(=O)NC2CCCN(CC3CCCCC3)C2)cn1 (stereo unspecified) | 15.9%
Cc1cc(C)n(C2CN(c3nc(N)nc4c3CCCC4)C2)n1 | -16.5%
c1ccc(CN2CCC(Nc3ncnc4c3CCNCC4)C2)cc1 (stereo unspecified) | -4.37%
COc1ccc(-c2ccc(C(=O)N3CCC[C@@H]3CO)o2)cc1 | -13.9%

Compound | cytotoxicity at 70.5 h
Cc1ccc(-n2c(COC(C)C)n[nH]c2=O)cc1 | -2.37%
Fc1ccccc1Cc1noc(CN2CCC(C3CCCCC3)C2)n1 (stereo unspecified) | 34.7%
CCOc1ccc(CN2CCN(CCOC)[C@@H]3CS(=O)(=O)C[C@@H]32)cc1 | 5.04%
CC(C)(C)c1nc(CN2CCc3onc(-c4cccc(F)c4)c3C2)no1 | -12.1%
Cc1cc(NC(=O)Cn2ccc(-c3ccc4c(c3)OCO4)n2)n(C)n1 | -13.2%
COc1cc(F)c(C(=O)NCc2cc(C)on2)c(F)c1 | -6.54%
O=C(CCc1cc2n(n1)CCCNC2)N1CCSCC1 | -9.8%
CC(C)c1nc(N2CCC(N3CCCC(O)C3)CC2)c2cnn(C)c2n1 (stereo unspecified) | 1.93%
CC(C)c1nc(N2CCC(N3CCSCC3)CC2)c2cnn(C)c2n1 | -2.43%
CSCCC1c2nc[nH]c2CCN1Cc1ccccc1C#N (stereo unspecified) | -6.75%
Nc1ccncc1-n1cc(CCO)cn1 | 1.11%
CCNC(=O)C1CCN(Cc2ccc(C(=O)Nc3nnc(C)s3)cc2)C1 (stereo unspecified) | 26.3%
CNc1nc(C(=O)N2CCn3nc(C(=O)OC)cc3C2)cs1 | -4.4%
Cc1nc(CCN)cc(N(C)Cc2nc3ccc(F)cc3[nH]2)n1 | 0.172%
COCc1cc(N2CCN(c3ccc(Cl)cn3)CC2)n2nccc2n1 | -0.783%
O=C1OCCN1CC(=O)N1C[C@H]2CC[C@@H]1CN(C(=O)c1ccccn1)C2 | -7.06%
Cc1nc2c(c(N3CCCC(CO)C3)n1)CCN(Cc1ccco1)CC2 (stereo unspecified) | 16.9%
CSc1cccc(CN(C)C(=O)Cn2ncc(N(C)C)cc2=O)c1 | -3.4%
COCCC1(CO)CCCN(C(=O)c2cc(=O)[nH]c(=O)[nH]2)C1 (stereo unspecified) | -8.57%

Source: ChEMBL document CHEMBL3507680, “University of Dundee, Gates Library screen for HepG2 cell viability”
